What all share (format): biochemical
One assay addresses T1, MMP-1 (Homo sapiens, UniProt P03956).
T1 construct: made in house; host or cells: MMP-1-transfected HT-1080 cells (spent media)
T1 sequence (P03956 100-469): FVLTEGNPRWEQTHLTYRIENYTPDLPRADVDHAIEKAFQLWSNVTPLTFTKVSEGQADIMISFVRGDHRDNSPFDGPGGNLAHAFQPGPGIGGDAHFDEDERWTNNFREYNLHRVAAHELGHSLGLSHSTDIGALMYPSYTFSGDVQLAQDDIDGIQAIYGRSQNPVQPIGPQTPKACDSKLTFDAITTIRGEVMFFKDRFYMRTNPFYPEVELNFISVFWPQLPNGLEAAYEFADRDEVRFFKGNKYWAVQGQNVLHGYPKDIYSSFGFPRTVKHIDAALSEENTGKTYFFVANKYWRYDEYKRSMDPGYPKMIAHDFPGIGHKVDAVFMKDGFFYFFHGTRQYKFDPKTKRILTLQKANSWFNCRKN
Kind of assay: MMP-1 inhibition (in vitro Ki). Conditions: Table 9; read-out: MMP-1 Ki (IC-50).

For the next assay, the target named is T2, MMP-2 (Homo sapiens, UniProt P08253).
T2 construct: made in house; host or cells: MMP-2-transfected p2AHT2 cells
T2 sequence (P08253 110-660): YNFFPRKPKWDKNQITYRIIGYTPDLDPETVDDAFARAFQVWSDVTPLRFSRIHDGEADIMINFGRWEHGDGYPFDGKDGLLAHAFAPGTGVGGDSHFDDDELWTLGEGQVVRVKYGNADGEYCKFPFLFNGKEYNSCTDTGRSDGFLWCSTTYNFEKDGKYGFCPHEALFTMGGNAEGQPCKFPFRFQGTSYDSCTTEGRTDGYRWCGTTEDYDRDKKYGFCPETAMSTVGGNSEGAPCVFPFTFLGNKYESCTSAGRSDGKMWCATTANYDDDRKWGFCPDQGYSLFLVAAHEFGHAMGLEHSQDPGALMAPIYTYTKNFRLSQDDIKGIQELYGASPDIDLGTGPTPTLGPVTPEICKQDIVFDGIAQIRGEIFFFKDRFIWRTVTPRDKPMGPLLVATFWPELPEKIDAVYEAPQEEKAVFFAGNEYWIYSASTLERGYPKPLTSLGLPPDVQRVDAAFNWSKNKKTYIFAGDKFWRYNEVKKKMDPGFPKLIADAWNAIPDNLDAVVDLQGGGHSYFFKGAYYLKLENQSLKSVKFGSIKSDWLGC
Kind of assay: MMP-2 inhibition (in vitro Ki). Particulars: Table 9; read-out: MMP-2 Ki (IC-50).

Another assay deals with T3, MMP-9 (Homo sapiens, UniProt P14780).
T3 construct: made in house; host or cells: MMP-9-transfected HT1080 cells (spent media)
Put plainly: MMP-9 inhibition (in vitro Ki). Conditions: Table 9; read-out: MMP-9 Ki (IC-50).

In another assay the target is T4, MMP-13 (Homo sapiens, UniProt P45452).
T4 construct: made in house; host or cells: baculovirus / insect cells
Put plainly: MMP-13 inhibition (in vitro Ki). Particulars: Table 9; read-out: MMP-13 Ki (IC-50).

The target of a further assay is T5, MMP-14 (Homo sapiens, UniProt P50281).
T5 construct: The catalytic domain enzyme was expressed in E. coli inclusion bodies, solubilized in urea; made in house
Kind of assay: MMP-14 inhibition (in vitro Ki). Conditions: Table 9; read-out: MMP-14 Ki (IC-50).

From patent US20050209278A1, “Piperidinyl- and piperazinyl-sulfonylmethyl hydroxamic acids and their use as protease inhibitors” (priority 2002, published 2005) come the findings set out here.

Structures are written as SMILES.

T3 sequence (P14780 107-707 limits assumed): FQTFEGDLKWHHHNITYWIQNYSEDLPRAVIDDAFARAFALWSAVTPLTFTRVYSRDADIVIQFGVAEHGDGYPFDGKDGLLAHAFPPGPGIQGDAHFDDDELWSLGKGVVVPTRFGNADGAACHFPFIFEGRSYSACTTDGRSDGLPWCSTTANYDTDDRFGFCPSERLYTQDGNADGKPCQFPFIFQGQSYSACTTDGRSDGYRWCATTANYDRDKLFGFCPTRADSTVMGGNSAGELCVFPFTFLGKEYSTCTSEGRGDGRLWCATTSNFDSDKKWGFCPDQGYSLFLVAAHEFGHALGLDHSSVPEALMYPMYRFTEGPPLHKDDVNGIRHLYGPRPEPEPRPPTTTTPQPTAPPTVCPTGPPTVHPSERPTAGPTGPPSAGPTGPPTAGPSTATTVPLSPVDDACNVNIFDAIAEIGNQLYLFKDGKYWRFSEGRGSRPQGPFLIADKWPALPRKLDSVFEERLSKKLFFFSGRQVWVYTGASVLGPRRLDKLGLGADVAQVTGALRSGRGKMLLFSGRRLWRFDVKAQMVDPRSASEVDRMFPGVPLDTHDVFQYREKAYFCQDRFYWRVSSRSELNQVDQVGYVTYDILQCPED

One may read the Ki as the equilibrium dissociation constant of an inhibitor or competing ligand from its target. On to `COCc1ccc(C2CCN(S(=O)(=O)C3(C(=O)NO)CCOCC3)CC2)nc1` [Example A177], for which the Ki at MMP-1 is over 10 µM; on MMP-2, 3.83 nM; at MMP-9 it was 0.88 nM; at MMP-13, 6.81 nM; on MMP-14, 3360 nM.
As for `O=C(NO)C1(S(=O)(=O)N2CCC(c3ccc(CCC(F)(F)C(F)(F)F)cn3)CC2)CCN(c2ncccn2)CC1` [Example A178], the Ki on MMP-1 was over 10 µM; at MMP-2 it was 0.881 nM; at MMP-9, 0.596 nM; at MMP-13 it was 0.437 nM; on MMP-14, 1950 nM.
With `CCOCc1ccc(C2CCN(S(=O)(=O)C3(C(=O)NO)CCOCC3)CC2)nc1` [Example A179], the Ki is over 10 µM on MMP-1; 2.51 nM on MMP-2; 0.49 nM on MMP-9; 1.9 nM on MMP-13; 4280 nM on MMP-14.
For `N#Cc1ccc(N2CCN(S(=O)(=O)C3(C(=O)NO)CCOCC3)CC2)cc1F` [Example A180], the Ki turned out to be 8.89 µM at MMP-1; 2.35 nM at MMP-2; 96.1 nM on MMP-9; 2.1 nM on MMP-13; 1300 nM at MMP-14.
For the compound `CCN1CCC(C(=O)NO)(S(=O)(=O)N2CCC(c3ccc(CCC(F)(F)C(F)(F)F)cn3)CC2)CC1` [Example A181], the Ki on MMP-1 was over 10 µM; at MMP-2, 2.36 nM; at MMP-9, 1.33 nM; at MMP-13 it was 0.61 nM; on MMP-14 it was over 10000 nM.
On to `COCCN1CCC(C(=O)NO)(S(=O)(=O)N2CCC(c3ccc(CCC(F)(F)C(F)(F)F)cn3)CC2)CC1` [Example A182], for which the Ki is over 10 µM at MMP-1; 0.93 nM at MMP-2; 0.39 nM on MMP-9; 0.3 nM at MMP-13; 5890 nM on MMP-14.
Turning to `O=C(NO)C1(S(=O)(=O)N2CCN(c3ccc(CCCC(F)(F)F)cc3)CC2)CCN(CC(F)(F)F)CC1` [Example A183], the Ki was over 10 µM at MMP-1; 2.06 nM on MMP-2; 307 nM at MMP-9; 1.07 nM at MMP-13; over 10000 nM on MMP-14.
Take `O=C(NO)C1(S(=O)(=O)N2CCN(c3ccc(CCC(F)(F)F)cn3)CC2)CCOCC1` [Example A184]: the Ki was determined as 7.05 µM at MMP-1; 0.38 nM on MMP-2; 0.52 nM at MMP-9; 0.41 nM at MMP-13; 985 nM on MMP-14.
The matching figures for `O=C(NO)C1(S(=O)(=O)N2CCC(CCc3ccccc3)CC2)CCOCC1` [Example A185]: 1.72 µM, 1.1 nM, 1.69 nM, 0.95 nM and 42.7 nM.
For `CCn1nnc(-c2ccc(N3CCN(S(=O)(=O)C4(C(=O)NO)CCOCC4)CC3)cc2)n1` [Example A186], the Ki at MMP-1 was found to be 0.924 µM; on MMP-2, 0.23 nM; on MMP-9, 0.55 nM; at MMP-13, 0.21 nM; at MMP-14, 421 nM.
`O=C(NO)C1(S(=O)(=O)N2CCN(c3ccc(-c4cccs4)cn3)CC2)CCOCC1` [Example A187]: the Ki came out at 0.936 µM on MMP-1; 0.54 nM on MMP-2; 2.14 nM on MMP-9; 0.56 nM on MMP-13; 1240 nM on MMP-14.
Taken in the same sequence, the figures for `O=C(NO)C1(S(=O)(=O)N2CCC(c3ccc(-n4ccnc4)cn3)CC2)CCOCC1` [Example A188] were 3.31 µM, 7.61 nM, 54.7 nM, 3.89 nM and 6200 nM.
Consider `O=C(NO)C1(S(=O)(=O)N2CCN(c3ccc(CCC(F)(F)C(F)(F)F)cn3)CC2)CCOCC1` [Example A190], for which the Ki was over 10 µM at MMP-1; 0.39 nM at MMP-2; 1.09 nM at MMP-9; 0.22 nM on MMP-13; 3350 nM on MMP-14.
With `CSCCOc1ccc(C2CCN(S(=O)(=O)C3(C(=O)NO)CCOCC3)CC2)nc1` [Example A191], the Ki on MMP-1 was found to be 1.71 µM; at MMP-2, 0.31 nM; on MMP-9, 0.27 nM; on MMP-13 it was 0.13 nM; at MMP-14, 470 nM.
As to `Cc1cnn(-c2ccc(C3CCN(S(=O)(=O)C4(C(=O)NO)CCOCC4)CC3)nc2)c1` [Example A193], the Ki on MMP-1 came to 4.71 µM; on MMP-2, 4.7 nM; at MMP-9, 8.24 nM; at MMP-13, 2.09 nM; on MMP-14, 2820 nM.
Regarding `O=C(NO)C1(S(=O)(=O)N2CCC(c3ccc(-n4cccn4)cn3)CC2)CCOCC1` [Example A194], the Ki was over 10 µM at MMP-1; 8.71 nM at MMP-2; 12.6 nM at MMP-9; 8.86 nM on MMP-13; 1700 nM on MMP-14.
Regarding `O=C(NO)C1(S(=O)(=O)N2CCN(c3ccc(-c4cccnc4)c(F)c3)CC2)CCOCC1` [Example A195], the Ki on MMP-1 is 1.57 µM; at MMP-2, 0.18 nM; on MMP-9, 6.81 nM; at MMP-13, 0.34 nM; on MMP-14, 2430 nM.
Take `CCCCc1cnc(C2CCN(S(=O)(=O)C3(C(=O)NO)CCOCC3)CC2)nc1` [Example A196]: the Ki was over 10 µM on MMP-1; 70 nM on MMP-2; 2.02 nM on MMP-9; 21.8 nM at MMP-13; over 10000 nM on MMP-14.
The matching figures for `O=C(NO)C1(S(=O)(=O)N2CCN(c3ccc(-c4nnn(CC(F)(F)F)n4)cc3)CC2)CCOCC1` [Example A199]: 0.287 µM, 0.06 nM, 0.84 nM, 0.04 nM and 287 nM.
The matching figures for `O=C(NO)C1(S(=O)(=O)N2CCC(c3ccc(-c4nccs4)cn3)CC2)CCOCC1` [Example A200]: over 10 µM, 8.83 nM, 6.77 nM, 6.77 nM and over 10000 nM.
Taken in the same sequence, the figures for `Cn1cc(-c2ccc(C3CCN(S(=O)(=O)C4(C(=O)NO)CCOCC4)CC3)nc2)cn1` [Example A201] were 5.85 µM, 4.25 nM, 16.8 nM, 2.14 nM and 3380 nM.
As for `Cn1nnc(-c2ccc(C3CCN(S(=O)(=O)C4(C(=O)NO)CCOCC4)CC3)cc2)n1` [Example A202], the Ki on MMP-1 came to 2.3 µM; on MMP-2, 0.46 nM; on MMP-9, 0.92 nM; on MMP-13 it was 2.08 nM; on MMP-14, 1230 nM.
For `O=C(NO)C1(S(=O)(=O)N2CCC(c3ccc(CCC(F)(F)C(F)(F)F)cn3)CC2)CCN(C2CC2)CC1` [Example A204], the Ki at MMP-1 was over 10 µM; at MMP-2, 0.65 nM; at MMP-9, 0.29 nM; at MMP-13, 0.23 nM; at MMP-14, 5100 nM.
In the case of `O=C(NO)C1(S(=O)(=O)N2CCN(c3ccc(-c4ccsc4)c(F)c3)CC2)CCOCC1` [Example A205], the Ki on MMP-1 was determined as 3.59 µM; at MMP-2, 0.33 nM; at MMP-9 it was 1.16 nM; on MMP-13, 0.93 nM; on MMP-14, 297 nM.
`O=C(NO)C1(S(=O)(=O)N2CCC(c3cnc(OCC(F)(F)C(F)F)cn3)CC2)CCOCC1` [Example A206]: the Ki at MMP-1 worked out at 4.46 µM; at MMP-2, 0.71 nM; on MMP-9, 0.84 nM; at MMP-13, 0.9 nM; at MMP-14, 5750 nM.
As to `O=C(/C=C/C=C/C1CCN(S(=O)(=O)C2(C(=O)NO)CCOCC2)CC1)N1CCOCC1` [Example A208], the Ki is 7.36 µM on MMP-1; 178 nM at MMP-2; 1590 nM at MMP-9; 1.94 nM at MMP-13; over 10000 nM at MMP-14.
